Measurements as given in US11236106B2, “Cycloalkane-1,3-diamine derivative” (Daiichi Sankyo Company, Limited, priority 2018, dated 2022).
Where a name gives a salt, the structure may show the parent alone. Read-outs that look alike come from different tables or passages of the source.

Target: T1, menin and MLL (menin, Flag tagged; biotinylated MLL1 peptide 1-46aa) (Homo sapiens, UniProt O00255)
T1 sequence (O00255 1-610): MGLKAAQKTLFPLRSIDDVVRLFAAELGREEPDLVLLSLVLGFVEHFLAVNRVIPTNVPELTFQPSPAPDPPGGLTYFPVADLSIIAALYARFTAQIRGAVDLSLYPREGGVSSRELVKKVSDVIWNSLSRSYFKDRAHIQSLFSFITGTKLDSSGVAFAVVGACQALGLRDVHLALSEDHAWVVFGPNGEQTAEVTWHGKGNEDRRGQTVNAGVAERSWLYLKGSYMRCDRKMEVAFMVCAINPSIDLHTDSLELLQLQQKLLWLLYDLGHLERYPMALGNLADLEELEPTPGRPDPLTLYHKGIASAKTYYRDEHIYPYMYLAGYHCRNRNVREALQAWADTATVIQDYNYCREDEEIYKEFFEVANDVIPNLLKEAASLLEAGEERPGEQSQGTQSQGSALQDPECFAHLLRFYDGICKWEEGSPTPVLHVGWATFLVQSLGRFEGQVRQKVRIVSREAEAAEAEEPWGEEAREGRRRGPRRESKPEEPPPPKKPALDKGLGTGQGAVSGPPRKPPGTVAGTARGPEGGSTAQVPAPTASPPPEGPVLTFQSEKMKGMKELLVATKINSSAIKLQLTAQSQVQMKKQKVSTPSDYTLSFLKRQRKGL
Test: biochemical

[1] = cell free IC50 (nM), 1 nM menin, 10 nM biotinylated MLL1 peptide, AlphaLISA
[2] = IC50, binding inhibitory activity between menin and MLL, AlphaLISA, 1 nM menin, 10 nM biotinylated MLL1 peptide

Description: Then, the fluorescence signal by AlphaLISA (registered trademark, PerkinElmer Co., Ltd.) was measured using a plate reader (PerkinElmer Co., Ltd., EnVisionXcite).

Compound	IC50 [1]	IC50 [2]	also measured
CN(c1ncnc2sc(CC(F)(F)F)cc12)[C@@H]1CC[C@H](NCc2ccc(OCCN3CCOCC3)cc2)C1 [Example 30, (1R,3S)-N^1-methyl-N^3-({4-[2-(morpholin-4-yl)ethoxy]phenyl}methyl)-N^1-[6-(2,2,2-trifluoroethyl)thieno[2,3-d]pyrimidin-4-yl]cyclopentane-1,3-diamine hydrochloride]	44.6 nM		
CN(c1ncnc2sc(CC(F)(F)F)cc12)[C@@H]1CC[C@H](NCc2ccc(-c3cnc4c(c3)OCCO4)cc2)C1 [Example 63, (1R,3S)-N^3-{[4-(2,3-dihydro[l,4]dioxino[2,3-b]pyridin-7-yl)phenyl]methyl}-N^1-methyl-N^1-[6-(2,2,2-trifluoroethyl)thieno[2,3-d]pyrimidin-4-yl]cyclopentane-1,3-diamine hydrochloride]		19.9 nM	
CNc1nc(N(C)[C@H]2C[C@@H](NCc3ccc(-c4ccc(F)c(OC)c4F)cc3)C[C@H]2O)c2cc(CC(F)(F)F)sc2n1 [Example 87, (1R,2S,4R)-4-{[(2′,4′-difluoro-3′-methoxy[1,1′-biphenyl]-4-yl)methyl]amino}-2-{methyl[2-(methylamino)-6-(2,2,2-trifluoroethyl)thieno[2,3-d]pyrimidin-4-yl]amino}cyclopentan-1-ol hydrochloride]		6.6 nM	
FC(F)(F)Cc1cc2c(N[C@@H]3CCC[C@H](NCc4ccc(-c5ccncc5)cc4)C3)ncnc2s1 [Example 40, (1S,3R)-N^1-{[4-(pyridin-4-yl)phenyl]methyl}-N^3-[6-(2,2,2-trifluoroethyl)thieno[2,3-d]pyrimidin-4-yl]cyclohexane-1,3-diamine hydrochloride]	265 nM		
COc1cncc(-c2ccc(CN[C@@H]3C[C@H](O)C[C@H](Nc4ncnc5sc(CC(F)(F)F)cc45)C3)cc2)c1 (single isomer, unassigned) [Example 15B, Hydrochloride]	403 nM		
Cc1c(CN[C@H]2CC[C@@H](N(C)c3ncnc4sc(CC(F)(F)F)cc34)C2)ccc2c1cc(C#N)n2Cc1cn[nH]c1 [Example 2, 4-methyl-5-({[(1S,3R)-3-{methyl[6-(2,2,2-trifluoroethyl)thieno[2,3-d]pyrimidin-4-yl]amino}cyclopentyl]amino}methyl)-1-[(1H-pyrazol-4-yl)methyl]-1H-indole-2-carbonitrile Hydrochloride]	12.8 nM		
COc1cncc(-c2ccc(CN[C@@H]3C[C@H](N(C)c4ncnc5sc(CC(F)(F)F)cc45)C[C@H]3O)cc2)c1 [Example 50, (1R,2R,4S)-2-({[4-(5-methoxypyridin-3-yl)phenyl]methyl}amino)-4-{methyl[6-(2,2,2-trifluoroethyl)thieno[2,3-d]pyrimidin-4-yl]amino}cyclopentan-1-ol hydrochloride]			IC50: 9.7 nM
CN(c1ncnc2sc(CC(F)(F)F)cc12)[C@H]1C[C@@H](NCc2ccc(-c3cccc(CS(C)(=O)=O)c3)cc2)C[C@H]1O [Example 86, (1R,2S,4R)-4-[({3′-[(methanesulfonyl)methyl][1,1′biphenyl]-4-yl}methyl)amino]-2-{methyl[6-(2,2,2 trifluoroethyl)thieno[2,3-d]pyrimidin-4-yl]amino}cyclopentan-1-ol hydrochloride]		20.9 nM	
O=C(NC1COC1)c1ccc(CN[C@H]2CCC[C@@H](Nc3ncnc4sc(CC(F)(F)F)cc34)C2)cc1 [Example 10, N-(oxetan-3-yl)-4-({[(1S,3R)-3-{[6-(2,2,2-trifluoroethyl)thieno[2,3-d]pyrimidin-4-yl]amino}cyclohexyl]amino}methyl)benzamide Hydrochloride]	199 nM		
COc1nc(N(C)[C@H]2C[C@@H](NCC3CC=C(c4cc(OC)c(OC)nn4)CC3)C[C@H]2O)c2cc(CC(F)(F)F)sc2n1 (mixture of isomers) [Example 125, (1R,2S,4R)-4-({[4-(5,6-dimethoxypyridazin-3-yl)cyclohex-3-en-1-yl]methyl}amino)-2-{[2-methoxy-6-(2,2,2-trifluoroethyl)thieno[2,3-d]pyrimidin-4-yl](methyl)amino}cyclopentan-1-ol hydrochloride]			IC50: 1.5 nM
CN(c1ncnc2sc(CC(F)(F)F)cc12)[C@@H]1CC[C@H](NCc2cnn(-c3ccccc3)c2)C1 [Example 32, (1R,3S)-N^1-methyl-N^3-[(1-phenyl-1H-pyrazol-4-yl)methyl]-N^1-[6-(2,2,2-trifluoroethyl)thieno[2,3-d]pyrimidin-4-yl]cyclopentane-1,3-diamine hydrochloride]	94.9 nM		
C=CC(=O)N(C)c1nnc(-c2ccc(CN[C@H]3C[C@@H](O)[C@@H](N(C)c4nc(OC)nc5sc(CC(F)(F)F)cc45)C3)cc2)cc1OC [Example 113, N-{6-[4-({[(1R,3R,4S)-3-hydroxy-4-{[2-methoxy-6(2,2,2-trifluoroethyl)thieno[2,3-d]pyrimidin-4-yl](methyl)amino}cyclopentyl]amino}methyl)phenyl]-4-methoxypyridazin-3-yl}-N-methylprop-2-enamide hydrochloride]		29.2 nM	
CN(c1ncnc2sc(CC(F)(F)F)cc12)[C@H]1C[C@@H](NCc2ccc(-c3cc(F)cc4c3cnn4S(C)(=O)=O)cc2)C[C@H]1O [Example 85, (1R,2S,4R)-4-[({4-[6-fluoro-1-(methanesulfonyl)-1H-indazol-4-yl]phenyl}methyl)amino]-2-{methyl[6-(2,2,2-trifluoroethyl)thieno[2,3-d]pyrimidin-4-yl]amino}cyclopentan-1-ol hydrochloride]		4 nM	
COc1cc(-c2ccc(CN[C@H]3C[C@@H](O)[C@@H](N(C)c4ncnc5sc(CC(F)(F)F)cc45)C3)cc2)nnc1N(C)C [Example 98, (1R,2S,4R)-4-[({4-[6-(dimethylamino)-5-methoxypyridazin-3-yl]phenyl}methyl)amino]-2-{methyl[6-(2,2,2-trifluoroethyl)thieno[2,3-d]pyrimidin-4-yl]amino}cyclopentan-1-ol hydrochloride]		1.9 nM	
COc1cc(-c2ccc(CN[C@H]3C[C@@H](O)[C@@H](N(C)c4ncncc4Oc4ccc(F)cc4-c4cncnc4C(C)C)C3)cc2)nnc1OC [Example 100, (1R,2S,4R)-4-({[4-(5,6-dimethoxypyridazin-3-yl)phenyl]methyl}amino)-2-[(5-{4-fluoro-2-[4-(propan-2-yl)pyrimidin-5-yl]phenoxy}pyrimidin-4-yl)(methyl)amino]cyclopentan-1-ol hydrochloride]		2.5 nM	
COc1cc(-c2ccc(CN[C@H]3C[C@@H](O)[C@@H](N(C)c4ncnc5sc(CC(F)(F)F)cc45)C3)cc2F)cnc1F [Example 74, (1R,2S,4R)-4-({[3-fluoro-4-(6-fluoro-5-methoxypyridin-3-yl)phenyl]methyl}amino)-2-{methyl[6-(2,2,2-trifluoroethyl)thieno[2,3-d]pyrimidin-4-yl]amino}cyclopentan-1-ol hydrochloride]		6.5 nM	
COc1nc(N(C)[C@H]2C[C@@H](NCc3ccc(-c4cnc(S(C)(=O)=O)c(OC)c4)cc3)C[C@H]2O)c2cc(CC(F)(F)F)sc2n1 [Example 94, (1R,2S,4R)-4-[({4-[6-(methanesulfonyl)-5-methoxypyridin-3-yl]phenyl}methyl)amino]-2-{[2-methoxy-6-(2,2,2-trifluoroethyl)thieno[2,3-d]pyrimidin-4-yl](methyl)amino}cyclopentan-1-ol hydrochloride]		2.1 nM	
CCOc1cc(-c2ccc(CN[C@H]3C[C@@H](O)[C@@H](N(C)c4ncnc5sc(CC(F)(F)F)cc45)C3)cc2)cnc1OC [Example 80, (1R,2S,4R)-4-({[4-(5-ethoxy-6-methoxypyridin-3-yl)phenyl]methyl}amino)-2-{methyl[6-(2,2,2-trifluoroethyl)thieno[2,3-d]pyrimidin-4-yl]amino}cyclopentan-1-ol hydrochloride]			IC50: 15.4 nM
CNc1nc(N(C)[C@H]2C[C@@H](NCc3ccc(-c4cc(F)cc(OC)c4)cc3)C[C@H]2O)c2cc(CC(F)(F)F)sc2n1 [Example 75, (1R,2S,4R)-4-{[(3′-fluoro-5′-methoxy[1,1′-biphenyl]-4-yl)methyl}amino}-2-{methyl[2-(methylamino)-6-(2,2,2-trifluoroethyl)thieno[2,3-d]pyrimidin-4-yl]amino}cyclopentan-1ol hydrochloride]		17.2 nM	
COc1ncc(-c2ccc(CN[C@H]3C[C@@H](O)[C@@H](N(C)c4ncnc5sc(CC(F)(F)F)cc45)C3)cc2)nc1OC [Example 96, (1R,2S,4R)-4-({[4-(5,6-dimethoxypyrazin-2-yl)phenyl]methyl}amino)-2-{methyl[6-(2,2,2-trifluoroethyl)thieno[2,3-d]pyrimidin-4-yl]amino}cyclopentan-1-ol hydrochloride]			IC50: 2.7 nM
FC(F)(F)Cc1cc2c(N[C@@H]3CCC[C@H](NCc4ccc(Oc5ccccc5)cc4)C3)ncnc2s1 [Example 41, (1S,3R)-N^1-[(4-phenoxyphenyl)methyl]-N^3-[6-(2,2,2-trifluoroethyl)thieno[2,3-d]pyrimidin-4-yl]cyclohexane-1,3-diamine hydrochloride]	472 nM		
COc1cncc(-c2ccc(CN[C@H]3C[C@@H](O)[C@@H](N(C)c4ncnc5sc(CC(F)(F)F)cc45)C3)cc2)c1 [Example 129, (1R,2S,4R)-4-({[4-(5-methoxypyridin-3-yl)phenyl]methyl}amino)-2-{methyl[6-(2,2,2-trifluoroethyl)thieno[2,3-d]pyrimidin-4-yl]amino}cyclopentan-1-ol Hydrochloride]		5.5 nM	
